From ChEMBL document CHEMBL5357013, “Identification of Spiro[chromene-2,4'-piperidine]s as Potent, Selective, and Gq-Biased 5-HT2C Receptor Partial Agonists” (ACS Med Chem Lett, 2024)
Calls of active or inactive are those of the source. The rule behind the calls is not given here.

Legend:
[1] = biological target: T1, 5-hydroxytryptamine receptor 2C (Homo sapiens) (UniProt P28335); assay: Partial agonist activity at human 5-HT2CR expressed in human Flp-In-T-REx-293 cells assessed as increase in calcium flux upto 10 uM incubated for 60 mins followed by incubation for 30 mins in dark by Flou-4 dye based FLIPR assay; assay type: functional, cell-based; details: time 90.0 min
T1 sequence (whole entry): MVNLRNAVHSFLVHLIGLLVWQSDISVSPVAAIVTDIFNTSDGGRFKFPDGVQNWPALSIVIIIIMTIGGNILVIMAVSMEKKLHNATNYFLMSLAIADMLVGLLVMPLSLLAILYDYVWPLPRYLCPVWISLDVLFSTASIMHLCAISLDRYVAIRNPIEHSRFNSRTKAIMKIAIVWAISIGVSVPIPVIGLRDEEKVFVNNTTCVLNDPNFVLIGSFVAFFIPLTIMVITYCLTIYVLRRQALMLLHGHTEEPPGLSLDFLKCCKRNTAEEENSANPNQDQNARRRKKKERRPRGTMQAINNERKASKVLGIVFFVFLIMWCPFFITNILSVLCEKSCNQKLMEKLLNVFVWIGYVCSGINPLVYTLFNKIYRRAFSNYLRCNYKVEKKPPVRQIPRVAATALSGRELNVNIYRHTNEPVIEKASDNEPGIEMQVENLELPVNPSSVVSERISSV

[2] = biological target: T1, 5-hydroxytryptamine receptor 2C (Homo sapiens); assay: Partial agonist activity at human 5-HT2CR expressed in human Flp-In-T-REx-293 cells assessed as increase in calcium flux by measuring maximal efficacy incubated for 60 mins followed by incubation for 30 mins in dark by Flou-4 dye based FLIPR assay relative to control; assay type: functional, cell-based; details: time 90.0 min
[3] = biological target: 5-hydroxytryptamine receptor 2A (Homo sapiens) (UniProt P28223); assay: Partial agonist activity at human 5-HT2AR expressed in human Flp-In-T-REx-293 cells assessed as increase in calcium flux upto 10 uM incubated for 60 mins followed by incubation for 30 mins in dark by Flou-4 dye based FLIPR assay; assay type: functional, cell-based; details: time 90.0 min
[4] = biological target: T1, 5-hydroxytryptamine receptor 2C (Homo sapiens); assay: Partial agonist activity at Rluc-tagged 5-HT2CR (unknown origin) transfected in HEK293T cells assessed as beta-arrestin-2 recruitment incubated for 10 mins by coelenterazine 400a based BRET assay; assay type: functional, cell-based
[5] = biological target: T2, 5-hydroxytryptamine receptor 2C (Homo sapiens, UniProt P28335); assay: Partial agonist activity at human 5-HT2CR expressed in human Flp-In-T-REx-293 cells assessed as increase in calcium flux incubated for 60 mins followed by incubation for 30 mins in dark by Flou-4 dye based FLIPR assay; assay type: functional, cell-based
T2 sequence (P28335 whole entry): T1 sequence (whole entry)

[6] = biological target: T3, hERG (KCNH2) (Homo sapiens, UniProt Q12809); assay: Inhibition of hERG expressed in CHO cells at 10 uM by automated patch clamp method relative to control; assay type: toxicity, cell-based; details: CHO cells that express hERG
[7] = biological target: T1, 5-hydroxytryptamine receptor 2C (Homo sapiens); assay: Agonist activity at human 5-HT2CR expressed in human Flp-In-T-REx-293 cells assessed as increase in calcium flux by measuring maximal efficacy incubated for 60 mins followed by incubation for 30 mins in dark by Flou-4 dye based FLIPR assay; assay type: functional, cell-based; details: filed as agonist, time 90.0 min
[8] = biological target: T2, 5-hydroxytryptamine receptor 2C; assay: Agonist activity at human 5-HT2CR expressed in human Flp-In-T-REx-293 cells assessed as increase in calcium flux incubated for 60 mins followed by incubation for 30 mins in dark by Flou-4 dye based FLIPR assay; assay type: functional, cell-based
[9] = biological target: T3, hERG (KCNH2); assay: Inhibition of hERG at 10 uM relative to control; assay type: toxicity
[10] = biological target: T4, 5-hydroxytryptamine receptor 2B (Homo sapiens, UniProt P41595); assay: Partial agonist activity at human 5-HT2BR expressed in human Flp-In-T-REx-293 cells assessed as increase in calcium flux upto 10 uM incubated for 60 mins followed by incubation for 30 mins in dark by Flou-4 dye based FLIPR assay; assay type: functional, cell-based; details: time 90.0 min
[11] = biological target: T4, 5-hydroxytryptamine receptor 2B; assay: Partial agonist activity at human 5-HT2BR expressed in human Flp-In-T-REx-293 cells assessed as increase in calcium flux by measuring maximal efficacy incubated for 60 mins followed by incubation for 30 mins in dark by Flou-4 dye based FLIPR assay relative to control; assay type: functional, cell-based; details: time 90.0 min
[12] = biological target: T4, 5-hydroxytryptamine receptor 2B; assay: Partial agonist activity at human 5-HT2BR expressed in human Flp-In-T-REx-293 cells assessed as increase in calcium flux incubated for 60 mins followed by incubation for 30 mins in dark by Flou-4 dye based FLIPR assay; assay type: functional, cell-based

Chain of 5-hydroxytryptamine receptor 2A (Homo sapiens) (P28223 whole entry): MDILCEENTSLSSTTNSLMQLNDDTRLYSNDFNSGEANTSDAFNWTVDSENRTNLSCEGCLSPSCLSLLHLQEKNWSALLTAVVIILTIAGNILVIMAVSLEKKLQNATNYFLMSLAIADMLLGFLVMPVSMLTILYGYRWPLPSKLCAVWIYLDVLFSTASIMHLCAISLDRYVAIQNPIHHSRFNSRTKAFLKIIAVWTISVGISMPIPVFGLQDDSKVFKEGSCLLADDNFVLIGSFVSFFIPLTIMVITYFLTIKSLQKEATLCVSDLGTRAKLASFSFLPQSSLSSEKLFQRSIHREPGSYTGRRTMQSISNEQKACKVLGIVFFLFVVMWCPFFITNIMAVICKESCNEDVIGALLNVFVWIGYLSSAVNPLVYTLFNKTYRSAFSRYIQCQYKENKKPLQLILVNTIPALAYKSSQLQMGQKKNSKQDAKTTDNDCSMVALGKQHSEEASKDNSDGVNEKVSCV
T4 sequence (P41595 whole entry): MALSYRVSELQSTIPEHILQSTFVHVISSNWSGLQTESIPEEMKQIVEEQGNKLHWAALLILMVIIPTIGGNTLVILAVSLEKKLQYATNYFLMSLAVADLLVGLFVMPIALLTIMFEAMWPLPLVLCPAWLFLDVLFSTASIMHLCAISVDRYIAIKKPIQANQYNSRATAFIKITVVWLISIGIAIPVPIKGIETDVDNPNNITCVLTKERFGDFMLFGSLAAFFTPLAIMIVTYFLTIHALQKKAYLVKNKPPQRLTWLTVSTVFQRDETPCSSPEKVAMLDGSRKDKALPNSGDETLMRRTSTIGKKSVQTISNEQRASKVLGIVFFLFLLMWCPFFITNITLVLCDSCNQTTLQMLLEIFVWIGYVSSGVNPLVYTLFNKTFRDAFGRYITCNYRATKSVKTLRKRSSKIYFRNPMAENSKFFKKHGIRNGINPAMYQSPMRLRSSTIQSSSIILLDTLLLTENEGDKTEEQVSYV
T3 sequence (Q12809 whole entry): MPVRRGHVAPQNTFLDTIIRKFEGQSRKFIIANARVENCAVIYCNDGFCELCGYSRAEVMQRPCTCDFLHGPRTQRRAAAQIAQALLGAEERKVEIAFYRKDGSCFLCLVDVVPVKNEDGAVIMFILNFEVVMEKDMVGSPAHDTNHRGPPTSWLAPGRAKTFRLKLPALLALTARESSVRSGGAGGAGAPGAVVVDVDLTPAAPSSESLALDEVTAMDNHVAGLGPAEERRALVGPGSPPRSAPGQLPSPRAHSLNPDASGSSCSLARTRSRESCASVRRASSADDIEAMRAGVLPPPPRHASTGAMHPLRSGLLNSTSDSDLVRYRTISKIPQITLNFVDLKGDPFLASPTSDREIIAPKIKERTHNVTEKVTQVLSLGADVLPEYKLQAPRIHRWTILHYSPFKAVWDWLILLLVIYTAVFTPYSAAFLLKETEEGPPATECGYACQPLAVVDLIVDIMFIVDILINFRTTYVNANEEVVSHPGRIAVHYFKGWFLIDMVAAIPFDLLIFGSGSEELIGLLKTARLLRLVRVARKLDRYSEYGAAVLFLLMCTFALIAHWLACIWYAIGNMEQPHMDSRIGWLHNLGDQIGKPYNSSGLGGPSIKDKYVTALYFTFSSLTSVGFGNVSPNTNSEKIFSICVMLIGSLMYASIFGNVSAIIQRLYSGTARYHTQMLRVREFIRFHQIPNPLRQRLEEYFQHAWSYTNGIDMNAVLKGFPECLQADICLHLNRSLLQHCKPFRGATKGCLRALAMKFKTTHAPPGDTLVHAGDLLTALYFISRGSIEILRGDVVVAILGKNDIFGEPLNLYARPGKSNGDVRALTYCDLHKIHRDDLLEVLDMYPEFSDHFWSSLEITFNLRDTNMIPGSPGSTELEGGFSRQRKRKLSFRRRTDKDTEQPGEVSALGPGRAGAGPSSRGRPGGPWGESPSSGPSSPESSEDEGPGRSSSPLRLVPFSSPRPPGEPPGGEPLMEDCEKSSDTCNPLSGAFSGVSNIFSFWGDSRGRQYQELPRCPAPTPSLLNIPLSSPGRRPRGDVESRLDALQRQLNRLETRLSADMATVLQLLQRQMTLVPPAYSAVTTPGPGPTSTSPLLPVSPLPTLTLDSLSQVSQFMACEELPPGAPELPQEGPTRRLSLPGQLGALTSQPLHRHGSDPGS

| Compound | Activity [1] | Emax ([2]; filed as partial agonist) [%] | EC50 ([5]; read-out: EC50) [nM] | also measured |
| --- | --- | --- | --- | --- |
| OC1CC2(CCNCC2)Oc2ccccc21 (stereo not given) | inactive | – | – | – |
| Clc1ccc2c(c1)OC1(C=C2)CCNCC1 | – | 71.1 | 121 | Activity [3]: inactive; Activity [4]: inactive; inhibition at 10 µM [6]: 43.9% |
| Fc1ccc2c(c1)C=CC1(CCNCC1)O2 | – | 49.5 | 3060 | – |
| Fc1ccc2c(c1)OC1(C=C2)CCNCC1 | – | – | – | Emax [7]: 91.4%; EC50 [8]: 158 nM |
| C[C@H]1CC2(C=Cc3ccc(Cl)cc3O2)CCN1 (stereo in doubt; 31a) | inactive | – | – | – |
| Clc1ccc2c(c1)C=CC1(CCNCC1)O2 | – | – | 215 | Emax [2]: 36.3%; EC50 ([5]; read-out: pEC50 (converted)): 2000 nM |
| C[C@H]1CC2(C=Cc3ccc(Cl)cc3O2)CCN1 (stereo in doubt; 31b) | inactive | – | – | – |
| Clc1ccc2c(c1)OC1(C=C2)CC2CCC(C1)N2 (stereo not given) | inactive | – | – | – |
| NC1CCC2(C=Cc3ccc(Cl)cc3O2)CC1 (stereo not given) | – | 69 | 3380 | – |
| Fc1cccc2c1OC1(C=C2)CCNCC1 | – | 64.4 | 929 | – |
| C[C@@H]1CC2(C=Cc3ccc(Cl)cc3O2)CCN1 (stereo not given in full) | inactive | 82.5 | 950 | – |
| Cc1cccc2c1C=CC1(CCNCC1)O2 | – | 55.2 | 170 | – |
| COc1ccc2c(c1)OC1(C=C2)CCNCC1 | – | 50.4 | 3740 | – |
| Brc1ccc2c(c1)OC1(C=C2)CCNCC1 | – | 72.6 | 488 | – |
| COc1ccc2c3c1-c1ccccc1CC3NCC2 (stereo not given) | – | – | – | inhibition at 10 µM [9]: 92.7%; Activity [3]: inactive; Activity [10]: inactive; EC50 ([5]; read-out: pEC50 (converted)): 100 nM |
| Clc1cccc2c1OC1(C=C2)CCNCC1 | – | 75.7 | 150 | Emax [11]: 30.9%; Activity [3]: inactive; EC50 [12]: 470 nM |
| Clc1ccc2c(c1)OC1(C=C2)CCCNC1 (stereo not given) | inactive | – | – | – |
| CC1CNCCC12C=Cc1ccc(Cl)cc1O2 (stereo in doubt; 29b) [listing 1 of 2 here] | – | – | 2650 | – |

| Compound | Activity [1] | Emax ([2]; filed as partial agonist) [%] | EC50 ([5]; read-out: EC50) [nM] | also measured |
| --- | --- | --- | --- | --- |
| Cc1ccc2c(c1)OC1(C=C2)CCNCC1 | inactive | – | – | – |
| C1=CC2(CCNCC2)Oc2ccccc21 | – | 85.9 | 147 | Emax [11]: 19.4%; Activity [3]: inactive; Activity [4]: inactive; EC50 [12]: 897 nM |
| COc1ccc2c(c1)C=CC1(CCNCC1)O2 | inactive | – | – | – |
| Clc1ccc2c(c1)OC1(C=C2)CCCNCC1 (stereo not given) | – | – | 3110 | Emax [2]: 26.2% |
| O=C1CC2(CCNCC2)Oc2ccccc21 | inactive | – | – | – |
| COc1cccc2c1C=CC1(CCNCC1)O2 | inactive | – | – | – |
| Cc1ccc2c(c1)C=CC1(CCNCC1)O2 | inactive | – | – | – |
| Cc1cccc2c1OC1(C=C2)CCNCC1 | – | – | 2060 | Emax [2]: 22.4% |
| Clc1ccc2c(c1)OC1(C=C2)CCNC1 (stereo not given) | – | 44.7 | 330 | – |
| Clc1cccc2c1C=CC1(CCNCC1)O2 | – | – | – | Emax [7]: 81.9%; Emax [11]: 34.1%; Activity [3]: inactive; EC50 [8]: 31 nM; EC50 [12]: 68.4 nM |
| Clc1cc(Cl)c2c(c1)OC1(C=C2)CCNCC1 | inactive | – | – | – |
| CC1CNCCC12C=Cc1ccc(Cl)cc1O2 (stereo in doubt; 29a) [listing 1 of 2 here] | – | 80 | – | – |
| CC1CNCCC12C=Cc1ccc(Cl)cc1O2 (stereo in doubt; 29b) [listing 2 of 2 here] | – | 73.7 | – | – |
| c1ccc2c(c1)CCC1(CCNCC1)O2 | inactive | – | – | – |
| Clc1ccc2c(c1Cl)OC1(C=C2)CCNCC1 | inactive | – | – | – |
| CC1CNCCC12C=Cc1ccc(Cl)cc1O2 (stereo in doubt; 29a) [listing 2 of 2 here] | – | – | 476 | – |
| Clc1ccc2c(c1)OC1(C=C2)CNC1 | – | 58.5 | 2490 | – |
